From PubChem BioAssay AID1963875 (Molecular Pharmacology Branch, DTP, NCI, 2024)

Tested on: KRAS-mutant PDC complex spheroid viability
Test: Anticancer human tumor 186277-243-T-J2-PDC patient-derived colon adenocarcinoma cell line growth inhibition [KRAS2]
Conditions: for IC50: curve of first compound; for viability, T/C: stronger effect = lower value; active = viability on the fitted dose curve at most 10% of control; inactive = the rest
Outline: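 KRAS-mutant tumor cells were grown as spheroids with HUVEC endothelial cells and human MSCs as stroma. Targeted agents were tested alone and with KRAS pathway inhibitors. Doses started at or near clinical Cmax, or 10 microM, descending half-log.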

[1] = second compound 0.0316 µM, first compound 0.0316 µM
[2] = second compound 0.0316 µM, first compound 0.1 µM
[3] = second compound 0.1 µM, first compound 0.0316 µM
[4] = second compound 0.1 µM, first compound 0.1 µM
[5] = second compound 0.316 µM, first compound 0.0316 µM
[6] = second compound 0.316 µM, first compound 0.1 µM
[7] = second compound 1 µM, first compound 0.0316 µM
[8] = second compound 1 µM, first compound 0.1 µM
[9] = second compound 3.16 µM, first compound 0.0316 µM
[10] = second compound 3.16 µM, first compound 0.1 µM
[11] = second compound 0.0316 µM, first compound 0.316 µM
[12] = second compound 0.0316 µM, first compound 1 µM
[13] = second compound 0.0316 µM, first compound 3.16 µM
[14] = second compound 0.0316 µM, first compound 10 µM
[15] = second compound 0.1 µM, first compound 0.316 µM
[16] = second compound 0.1 µM, first compound 1 µM
[17] = second compound 0.1 µM, first compound 3.16 µM
[18] = second compound 0.1 µM, first compound 10 µM
[19] = second compound 0.316 µM, first compound 0.316 µM
[20] = second compound 0.316 µM, first compound 1 µM
[21] = second compound 0.316 µM, first compound 3.16 µM
[22] = second compound 0.316 µM, first compound 10 µM
[23] = second compound 1 µM, first compound 0.316 µM
[24] = second compound 1 µM, first compound 1 µM
[25] = second compound 1 µM, first compound 3.16 µM
[26] = second compound 1 µM, first compound 10 µM
[27] = second compound 3.16 µM, first compound 0.316 µM
[28] = second compound 3.16 µM, first compound 1 µM
[29] = second compound 3.16 µM, first compound 3.16 µM
[30] = second compound 3.16 µM, first compound 10 µM
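For viability, T/C in this document: viability read after seven days of compound exposure; 100% = DMSO vehicle-treated spheroids so lower means less viable.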

CC(C)n1nc(-c2ccc3oc(N)nc3c2)c2c(N)ncnc21 + C=CC(=O)N1CCN(c2nc(OCC3CCCN3C)nc3c2CCN(c2cccc4cccc(C)c24)C3)CC1CC#N
inactive: viability, T/C (second compound 0.0316 µM, first compound 0.000316 µM) 89.7% | viability, T/C (second compound 0.0316 µM, first compound 0.001 µM) 78.9% | viability, T/C (second compound 0.0316 µM, first compound 0.00316 µM) 63.5% | viability, T/C (second compound 0.0316 µM, first compound 0.01 µM) 44.2% | viability, T/C [1] 28.2% | viability, T/C [2] 16.9% | viability, T/C (second compound 0.1 µM, first compound 0.000316 µM) 88% | viability, T/C (second compound 0.1 µM, first compound 0.001 µM) 101% | viability, T/C (second compound 0.1 µM, first compound 0.00316 µM) 77.8% | viability, T/C (second compound 0.1 µM, first compound 0.01 µM) 51.2% | viability, T/C [3] 27.4% | viability, T/C [4] 21.2% | viability, T/C (second compound 0.316 µM, first compound 0.000316 µM) 106% | viability, T/C (second compound 0.316 µM, first compound 0.001 µM) 111% | viability, T/C (second compound 0.316 µM, first compound 0.00316 µM) 97.1% | viability, T/C (second compound 0.316 µM, first compound 0.01 µM) 58.2% | viability, T/C [5] 27% | viability, T/C [6] 16.4% | viability, T/C (second compound 1 µM, first compound 0.000316 µM) 102% | viability, T/C (second compound 1 µM, first compound 0.001 µM) 96.1% | viability, T/C (second compound 1 µM, first compound 0.00316 µM) 70.8% | viability, T/C (second compound 1 µM, first compound 0.01 µM) 38.4% | viability, T/C [7] 12.8%
active: viability, T/C [8] 8.12% | viability, T/C (second compound 3.16 µM, first compound 0.000316 µM) 0.26% | viability, T/C (second compound 3.16 µM, first compound 0.001 µM) 0.19% | viability, T/C (second compound 3.16 µM, first compound 0.00316 µM) 0.24% | viability, T/C (second compound 3.16 µM, first compound 0.01 µM) 0.14% | viability, T/C [9] 0.12% | viability, T/C [10] 0.16%
6.5 nM: IC50 (second compound 1 µM)
10.1 nM: IC50 (second compound 0.1 µM)
< 0.316 nM: IC50 (second compound 3.16 µM)
13.6 nM: IC50 (second compound 0.316 µM)
7.13 nM: IC50 (second compound 0.0316 µM)

CC1(C)CCC(CN2CCN(c3ccc(C(=O)NS(=O)(=O)c4ccc(NCC5CCOCC5)c([N+](=O)[O-])c4)c(Oc4cnc5[nH]ccc5c4)c3)CC2)=C(c2ccc(Cl)cc2)C1 + C=CC(=O)N1CCN(c2nc(OCC3CCCN3C)nc3c2CCN(c2cccc4cccc(C)c24)C3)CC1CC#N
2130 nM: IC50 (second compound 0.0316 µM)
1770 nM: IC50 (second compound 1 µM)
active: viability, T/C [14] 3.14% | viability, T/C [18] 4.15% | viability, T/C [22] 0.82% | viability, T/C [25] 0.67% | viability, T/C [26] 0.35% | viability, T/C [9] 0.28% | viability, T/C [10] 1.07% | viability, T/C [27] 0.22% | viability, T/C [28] 0.18% | viability, T/C [29] 0.13% | viability, T/C [30] 0.17%
1950 nM: IC50 (second compound 0.316 µM)
2240 nM: IC50 (second compound 0.1 µM)
inactive: viability, T/C [1] 101% | viability, T/C [2] 107% | viability, T/C [11] 110% | viability, T/C [12] 117% | viability, T/C [13] 19.4% | viability, T/C [3] 115% | viability, T/C [4] 105% | viability, T/C [15] 112% | viability, T/C [16] 108% | viability, T/C [17] 25% | viability, T/C [5] 114% | viability, T/C [6] 108% | viability, T/C [19] 97.8% | viability, T/C [20] 105% | viability, T/C [21] 10.8% | viability, T/C [7] 119% | viability, T/C [8] 101% | viability, T/C [23] 115% | viability, T/C [24] 98.2%
< 31.6 nM: IC50 (second compound 3.16 µM)

COc1cc(Nc2ncc3c(n2)-c2ccc(Cl)cc2C(c2c(F)cccc2OC)=NC3)ccc1C(=O)O + C=CC(=O)N1CCN(c2nc(OCC3CCCN3C)nc3c2CCN(c2cccc4cccc(C)c24)C3)CC1CC#N
active: viability, T/C [9] 0.25% | viability, T/C [10] 0.19% | viability, T/C [27] 0.19% | viability, T/C [28] 0.17% | viability, T/C [29] 0.69% | viability, T/C [30] 0.19%
inactive: viability, T/C [1] 34% | viability, T/C [2] 32.2% | viability, T/C [11] 30% | viability, T/C [12] 34.5% | viability, T/C [13] 43.3% | viability, T/C [14] 48% | viability, T/C [3] 34.2% | viability, T/C [4] 31.7% | viability, T/C [15] 30.3% | viability, T/C [16] 31.2% | viability, T/C [17] 42.8% | viability, T/C [18] 44.2% | viability, T/C [5] 34.3% | viability, T/C [6] 28.6% | viability, T/C [19] 27.4% | viability, T/C [20] 30.2% | viability, T/C [21] 40.2% | viability, T/C [22] 42.5% | viability, T/C [7] 28% | viability, T/C [8] 26.4% | viability, T/C [23] 25.9% | viability, T/C [24] 25.3% | viability, T/C [25] 29.5% | viability, T/C [26] 21.6%
< 31.6 nM: IC50 (second compound 0.0316 µM) | IC50 (second compound 0.1 µM) | IC50 (second compound 0.316 µM) | IC50 (second compound 1 µM) | IC50 (second compound 3.16 µM)

COc1cc2nccc(Oc3ccc(NC(=O)C4(C(=O)Nc5ccc(F)cc5)CC4)cc3)c2cc1OC + C=CC(=O)N1CCN(c2nc(OCC3CCCN3C)nc3c2CCN(c2cccc4cccc(C)c24)C3)CC1CC#N
inactive: viability, T/C [1] 108% | viability, T/C [2] 107% | viability, T/C [11] 114% | viability, T/C [12] 95.5% | viability, T/C [13] 12.5% | viability, T/C [14] 12.3% | viability, T/C [3] 113% | viability, T/C [4] 122% | viability, T/C [15] 110% | viability, T/C [16] 97.8% | viability, T/C [17] 11.4% | viability, T/C [18] 10.8% | viability, T/C [5] 109% | viability, T/C [6] 108% | viability, T/C [19] 116% | viability, T/C [20] 85.3% | viability, T/C [21] 10.5% | viability, T/C [22] 11.3% | viability, T/C [7] 107% | viability, T/C [8] 109% | viability, T/C [23] 112% | viability, T/C [24] 52.5%
< 31.6 nM: IC50 (second compound 3.16 µM)
1890 nM: IC50 (second compound 0.1 µM)
1880 nM: IC50 (second compound 0.0316 µM)
1720 nM: IC50 (second compound 0.316 µM)
1060 nM: IC50 (second compound 1 µM)
active: viability, T/C [25] 3.98% | viability, T/C [26] 0.37% | viability, T/C [9] 0.41% | viability, T/C [10] 0.44% | viability, T/C [27] 0.24% | viability, T/C [28] 0.21% | viability, T/C [29] 0.13% | viability, T/C [30] 0.2%
